Experiment in all cases: cAMP activity assay in assay medium (assay 1)
Common to all, as to assay type: cell-based

For one test, the target named is T1, Human GlucR (Homo sapiens, UniProt P47871).
T1 construct: expressed in transfected cells
To be noted: assay medium; Table 4; read-out: hGlucR EC50. The source says:
(§1) Biological Activity of Peptides in Cell-Based cAMP Activity Assay (Assay 1):
(§2) All sample dilutions were made in duplicate.

The target of another test is T2, Human GIPr (Homo sapiens, UniProt P48546).
T2 construct: expressed in transfected cells
T2 sequence (P48546 22-466): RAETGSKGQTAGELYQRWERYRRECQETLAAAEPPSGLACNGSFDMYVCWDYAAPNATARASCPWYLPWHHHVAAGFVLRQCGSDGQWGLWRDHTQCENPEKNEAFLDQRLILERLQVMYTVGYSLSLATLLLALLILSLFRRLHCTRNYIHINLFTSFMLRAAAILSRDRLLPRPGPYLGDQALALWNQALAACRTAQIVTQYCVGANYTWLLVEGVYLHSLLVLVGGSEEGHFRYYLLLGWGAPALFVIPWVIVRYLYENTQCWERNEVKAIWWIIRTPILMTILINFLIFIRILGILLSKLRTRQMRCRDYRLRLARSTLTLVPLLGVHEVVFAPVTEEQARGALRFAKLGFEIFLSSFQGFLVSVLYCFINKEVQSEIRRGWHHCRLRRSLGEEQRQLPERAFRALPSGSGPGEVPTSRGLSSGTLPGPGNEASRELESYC
To be noted: assay medium; Table 4; read-out: hGIPR EC50.
From the text: as §1, §2

The next test addresses Human GLP1R (Homo sapiens, UniProt P43220). On the set-up: expressed in transfected cells. To be noted: assay medium; Table 4; read-out: hGLP1R EC50.
From the text: as §1, §2

Numbered stars: 1 amine (or outer) side, 2 acyl side, 3 side chain; on linkers, the order of the positions; unused ones are H or OH. Side chains are listed from the residue outwards. Peptide text beside a SMILES is read from it. * marks the point of attachment. γGlu = O=C(O)[C@H](CCC(=O)[*:2])N[*:1]; Palmitoyl = CCCCCCCCCCCCCCCC(=O)*; Ahx = NCCCCCC(=O)O; βAla = NCCC(=O)O

Chain of Human GLP1R (P43220 24-463): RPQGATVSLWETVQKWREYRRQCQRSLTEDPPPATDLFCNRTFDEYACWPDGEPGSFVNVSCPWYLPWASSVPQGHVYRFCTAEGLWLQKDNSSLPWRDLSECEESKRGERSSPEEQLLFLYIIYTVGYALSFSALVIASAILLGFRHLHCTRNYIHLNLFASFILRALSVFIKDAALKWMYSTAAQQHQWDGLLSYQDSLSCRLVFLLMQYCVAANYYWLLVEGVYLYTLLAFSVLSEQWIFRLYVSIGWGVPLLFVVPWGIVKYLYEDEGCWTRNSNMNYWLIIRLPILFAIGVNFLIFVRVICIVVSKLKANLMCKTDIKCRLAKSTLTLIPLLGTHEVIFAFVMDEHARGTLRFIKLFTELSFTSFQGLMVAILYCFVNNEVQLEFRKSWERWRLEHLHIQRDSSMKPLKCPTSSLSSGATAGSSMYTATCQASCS
T1 sequence (P47871 26-477): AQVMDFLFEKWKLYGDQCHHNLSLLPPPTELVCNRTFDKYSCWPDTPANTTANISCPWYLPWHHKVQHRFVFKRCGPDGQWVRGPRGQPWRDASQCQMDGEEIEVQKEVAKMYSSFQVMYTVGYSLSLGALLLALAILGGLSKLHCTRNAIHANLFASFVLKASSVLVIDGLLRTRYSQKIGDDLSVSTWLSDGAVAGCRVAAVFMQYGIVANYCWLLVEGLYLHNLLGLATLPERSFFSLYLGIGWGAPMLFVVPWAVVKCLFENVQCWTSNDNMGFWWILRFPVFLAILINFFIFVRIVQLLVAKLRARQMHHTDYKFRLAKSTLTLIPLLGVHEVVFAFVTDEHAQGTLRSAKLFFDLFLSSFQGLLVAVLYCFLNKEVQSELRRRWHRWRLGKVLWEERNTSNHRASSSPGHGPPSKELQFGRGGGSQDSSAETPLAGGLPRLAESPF

On to `CCCCCCCCCCCCCCCC(=O)NCCCCCC(=O)NCCCC[C@H](NC(=O)[C@H](CO)NC(=O)[C@H](CC(=O)O)NC(=O)[C@H](CC(C)C)NC(=O)[C@H](Cc1ccc(O)cc1)NC(=O)[C@H](CCC(=O)O)NC(=O)[C@H](CO)NC(=O)[C@H](Cc1ccc(O)cc1)NC(=O)[C@H](CC(=O)O)NC(=O)[C@H](CO)NC(=O)[C@@H](NC(=O)[C@H](Cc1ccccc1)NC(=O)[C@@H](NC(=O)CNC(=O)[C@H](CCC(N)=O)NC(=O)[C@H](CO)NC(=O)[C@@H](N)Cc1c[nH]cn1)[C@@H](C)O)[C@@H](C)O)C(=O)N[C@@H](CCCNC(=N)N)C(=O)N[C@@H](C)C(=O)N[C@@H](CCCNC(=N)N)C(=O)N[C@@H](CC(=O)O)C(=O)N[C@@H](Cc1ccccc1)C(=O)N[C@H](C(=O)N[C@@H](C)C(=O)N[C@@H](Cc1c[nH]c2ccccc12)C(=O)N[C@@H](CC(C)C)C(=O)N[C@@H](CCC(=O)O)C(=O)N[C@@H](CCCNC(=N)N)C(=O)NCC(=O)NCC(N)=O)C(C)C` [g794] (H-HSQGTFTSDYSEYLDSK([Ahx-Palmitoyl])RARDFVAWLERGG-NH2; N-terminus assumed), for which the values for the concentration for a half-maximal effect (EC50) on Human GlucR, at Human GIPr and on Human GLP1R were 0.00469 nM, 32.2 nM and 0.0157 nM, respectively.

Turning to `CCCCCCCCCCCCCCCC(=O)NCCC(=O)NCCCC[C@H](NC(=O)[C@H](CO)NC(=O)[C@H](CC(=O)O)NC(=O)[C@H](CC(C)C)NC(=O)[C@H](Cc1ccc(O)cc1)NC(=O)[C@H](CCC(=O)O)NC(=O)[C@H](CO)NC(=O)[C@H](Cc1ccc(O)cc1)NC(=O)[C@H](CC(=O)O)NC(=O)[C@H](CO)NC(=O)[C@@H](NC(=O)[C@H](Cc1ccccc1)NC(=O)[C@@H](NC(=O)CNC(=O)[C@H](CCC(N)=O)NC(=O)[C@H](CO)NC(=O)[C@@H](N)Cc1c[nH]cn1)[C@@H](C)O)[C@@H](C)O)C(=O)N[C@@H](CCCNC(=N)N)C(=O)N[C@@H](C)C(=O)N[C@@H](CCCNC(=N)N)C(=O)N[C@@H](CC(=O)O)C(=O)N[C@@H](Cc1ccccc1)C(=O)N[C@H](C(=O)N[C@@H](C)C(=O)N[C@@H](Cc1c[nH]c2ccccc12)C(=O)N[C@@H](CC(C)C)C(=O)N[C@@H](CCC(=O)O)C(=O)N[C@@H](CCCNC(=N)N)C(=O)NCC(=O)NCC(N)=O)C(C)C` [g795] (H-HSQGTFTSDYSEYLDSK([βAla-Palmitoyl])RARDFVAWLERGG-NH2; N-terminus assumed), the EC50 came out at 0.11 nM on Human GlucR, 579 nM on Human GIPr and 0.0734 nM on Human GLP1R.

As to `CCCCCCCCCCCCCCCC(=O)N[C@@H](CCC(=O)NCCCC[C@H](NC(=O)[C@H](CCC(=O)O)NC(=O)[C@H](CO)NC(=O)[C@H](Cc1ccc(O)cc1)NC(=O)[C@H](CC(=O)O)NC(=O)[C@H](CO)NC(=O)[C@@H](NC(=O)[C@H](Cc1ccccc1)NC(=O)[C@@H](NC(=O)CNC(=O)[C@H](CCC(N)=O)NC(=O)[C@H](CO)NC(=O)[C@@H](N)Cc1c[nH]cn1)[C@@H](C)O)[C@@H](C)O)C(=O)N[C@@H](CC(C)C)C(=O)N[C@@H](CC(=O)O)C(=O)N[C@@H](CO)C(=O)N[C@@H](CCC(=O)O)C(=O)N[C@@H](CCCNC(=N)N)C(=O)N[C@@H](C)C(=O)N[C@@H](CCCNC(=N)N)C(=O)N[C@@H](CC(=O)O)C(=O)N[C@@H](Cc1ccccc1)C(=O)N[C@H](C(=O)N[C@@H](C)C(=O)N[C@@H](Cc1c[nH]c2ccccc12)C(=O)N[C@@H](CC(C)C)C(=O)N[C@H](C(=O)N[C@@H](C)C(=O)NCC(=O)NCC(N)=O)C(C)C)C(C)C)C(=O)O` [g802] (H-HSQGTFTSDYSEK([γGlu-Palmitoyl])LDSERARDFVAWLVAGG-NH2; N-terminus assumed), the EC50 on Human GlucR came to 1.81 nM; at Human GIPr, 91.2 nM; at Human GLP1R, 0.0964 nM.

`CCCCCCCCCCCCCCCC(=O)N[C@@H](CCC(=O)NCCCC[C@H](NC(=O)[C@H](Cc1ccc(O)cc1)NC(=O)[C@H](CCCCN)NC(=O)[C@H](CO)NC(=O)[C@H](Cc1ccc(O)cc1)NC(=O)[C@H](CC(=O)O)NC(=O)[C@H](CO)NC(=O)[C@@H](NC(=O)[C@H](Cc1ccccc1)NC(=O)[C@@H](NC(=O)CNC(=O)[C@H](CCC(N)=O)NC(=O)[C@H](CO)NC(=O)[C@@H](N)Cc1c[nH]cn1)[C@@H](C)O)[C@@H](C)O)C(=O)N[C@@H](CC(=O)O)C(=O)N[C@@H](CO)C(=O)N[C@@H](CCCNC(=N)N)C(=O)N[C@@H](CO)C(=O)N[C@@H](C)C(=O)N[C@@H](CCCNC(=N)N)C(=O)N[C@@H](CC(=O)O)C(=O)N[C@@H](Cc1ccccc1)C(=O)N[C@H](C(=O)N[C@@H](CCC(=O)O)C(=O)N[C@@H](Cc1c[nH]c2ccccc12)C(=O)N[C@@H](CC(C)C)C(=O)N[C@H](C(=O)N[C@@H](C)C(=O)NCC(=O)NCC(N)=O)C(C)C)C(C)C)C(=O)O` [g803] (H-HSQGTFTSDYSKYK([γGlu-Palmitoyl])DSRSARDFVEWLVAGG-NH2; N-terminus assumed): the values for the EC50 on Human GlucR, on Human GIPr and on Human GLP1R were 0.0108 nM, 32.9 nM and 0.0296 nM, respectively.

With `CCCCCCCCCCCCCCCC(=O)N[C@@H](CCC(=O)NCCCC[C@H](NC(=O)[C@H](Cc1ccc(O)cc1)NC(=O)[C@H](CCCCN)NC(=O)[C@H](CO)NC(=O)[C@H](Cc1ccc(O)cc1)NC(=O)[C@H](CC(=O)O)NC(=O)[C@H](CO)NC(=O)[C@@H](NC(=O)[C@H](Cc1ccccc1)NC(=O)[C@@H](NC(=O)CNC(=O)[C@H](CCC(N)=O)NC(=O)[C@H](CO)NC(=O)[C@@H](N)Cc1c[nH]cn1)[C@@H](C)O)[C@@H](C)O)C(=O)N[C@@H](CC(=O)O)C(=O)N[C@@H](CO)C(=O)N[C@@H](CCCNC(=N)N)C(=O)N[C@@H](CCCNC(=N)N)C(=O)N[C@@H](C)C(=O)N[C@@H](CCCNC(=N)N)C(=O)N[C@@H](CC(=O)O)C(=O)N[C@@H](Cc1ccccc1)C(=O)N[C@H](C(=O)N[C@@H](CCC(=O)O)C(=O)N[C@@H](Cc1c[nH]c2ccccc12)C(=O)N[C@@H](CC(C)C)C(=O)N[C@@H](CCC(=O)O)C(=O)N[C@@H](C)C(=O)NCC(=O)NCC(N)=O)C(C)C)C(=O)O` [g805] (H-HSQGTFTSDYSKYK([γGlu-Palmitoyl])DSRRARDFVEWLEAGG-NH2; N-terminus assumed), the EC50 at Human GlucR worked out at 0.00144 nM; on Human GIPr, 99.7 nM; at Human GLP1R, 0.0228 nM.

With `CCCCCCCCCCCCCCCC(=O)NCCCCCC(=O)NCCCC[C@H](NC(=O)[C@H](CCC(N)=O)NC(=O)[C@H](C)NC(=O)[C@H](C)NC(=O)[C@H](CCCNC(=N)N)NC(=O)[C@H](CO)NC(=O)[C@H](CC(=O)O)NC(=O)[C@H](CC(C)C)NC(=O)[C@H](Cc1ccc(O)cc1)NC(=O)[C@H](CCCCN)NC(=O)[C@H](CO)NC(=O)[C@H](Cc1ccc(O)cc1)NC(=O)[C@H](CC(=O)O)NC(=O)[C@H](CO)NC(=O)[C@@H](NC(=O)[C@H](Cc1ccccc1)NC(=O)[C@@H](NC(=O)CNC(=O)[C@H](CCC(N)=O)NC(=O)[C@H](CO)NC(=O)[C@@H](N)Cc1c[nH]cn1)[C@@H](C)O)[C@@H](C)O)C(=O)N[C@@H](Cc1ccccc1)C(=O)N[C@H](C(=O)N[C@@H](CCC(N)=O)C(=O)N[C@@H](Cc1c[nH]c2ccccc12)C(=O)N[C@@H](CC(C)C)C(=O)N[C@@H](CCC(=O)O)C(=O)N[C@@H](CCCNC(=N)N)C(=O)NCC(=O)NCC(N)=O)C(C)C` [g806] (H-HSQGTFTSDYSKYLDSRAAQK([Ahx-Palmitoyl])FVQWLERGG-NH2; N-terminus assumed), the values for the EC50 on Human GlucR, at Human GIPr and at Human GLP1R were 0.0099 nM, 105 nM and 0.171 nM, respectively.

In the case of `CCCCCCCCCCCCCCCC(=O)N[C@@H](CCC(=O)NCCCC[C@H](NC(=O)[C@H](Cc1ccc(O)cc1)NC(=O)[C@H](CCCCN)NC(=O)[C@H](CO)NC(=O)[C@H](Cc1ccc(O)cc1)NC(=O)[C@H](CC(=O)O)NC(=O)[C@H](CO)NC(=O)[C@@H](NC(=O)[C@H](Cc1ccccc1)NC(=O)[C@@H](NC(=O)CNC(=O)[C@H](CCC(N)=O)NC(=O)[C@H](CO)NC(=O)[C@@H](N)Cc1c[nH]cn1)[C@@H](C)O)[C@@H](C)O)C(=O)N[C@@H](CC(=O)O)C(=O)N[C@@H](CO)C(=O)N[C@@H](CCC(=O)O)C(=O)N[C@@H](CCCNC(=N)N)C(=O)N[C@@H](C)C(=O)N[C@@H](CCC(N)=O)C(=O)N[C@@H](CC(=O)O)C(=O)N[C@@H](Cc1ccccc1)C(=O)N[C@H](C(=O)N[C@@H](CCC(N)=O)C(=O)N[C@@H](Cc1c[nH]c2ccccc12)C(=O)N[C@@H](CC(C)C)C(=O)N[C@@H](CCC(=O)O)C(=O)N[C@@H](C)C(=O)NCC(=O)NCC(N)=O)C(C)C)C(=O)O` [g816], the EC50 at Human GlucR stood at 0.0011 nM; at Human GIPr, 20 nM; at Human GLP1R it was 0.0316 nM.

For `CCCCCCCCCCCCCCCC(=O)N[C@@H](CCC(=O)NCCCC[C@H](NC(=O)[C@H](Cc1ccc(O)cc1)NC(=O)[C@H](CCCCN)NC(=O)[C@H](CO)NC(=O)[C@H](Cc1ccc(O)cc1)NC(=O)[C@H](CC(=O)O)NC(=O)[C@H](CO)NC(=O)[C@@H](NC(=O)[C@H](Cc1ccccc1)NC(=O)[C@@H](NC(=O)CNC(=O)[C@H](CCC(N)=O)NC(=O)[C@H](CO)NC(=O)[C@@H](N)Cc1c[nH]cn1)[C@@H](C)O)[C@@H](C)O)C(=O)N[C@@H](CC(=O)O)C(=O)N[C@@H](CO)C(=O)N[C@@H](CCCNC(=N)N)C(=O)N[C@@H](C)C(=O)N[C@@H](C)C(=O)N[C@@H](CCC(N)=O)C(=O)N[C@@H](CC(=O)O)C(=O)N[C@@H](Cc1ccccc1)C(=O)N[C@H](C(=O)N[C@@H](CCC(N)=O)C(=O)N[C@@H](Cc1c[nH]c2ccccc12)C(=O)N[C@@H](CC(C)C)C(=O)N[C@@H](CCC(=O)O)C(=O)N[C@@H](C)C(=O)NCC(=O)NCC(N)=O)C(C)C)C(=O)O` [g817] (H-HSQGTFTSDYSKYK([γGlu-Palmitoyl])DSRAAQDFVQWLEAGG-NH2; N-terminus assumed), the EC50 was 0.00168 nM on Human GlucR, 15.2 nM on Human GIPr and 0.0251 nM on Human GLP1R.

The term EC50 denotes the concentration at which the effect is half-maximal.
